The values below are quoted from earlier work in patent US11000475B2, “Ophthalmic solution of difluprednate” (Sun Pharma Advanced Research Company Limited, priority 2015, dated 2021).

Molecules are shown by their SMILES.

Consider `CCCC(=O)O[C@]1(C(=O)COC(C)=O)CCC2[C@@H]3CC(F)C4=CC(=O)C=C[C@]4(C)C3(F)[C@@H](O)C[C@@]21C` (stereo partly shown) [Difluprednate], for which the “solubility in aqueous vehicle” value is listed as “practically insoluble”.
